Assay results reported in ChEMBL document CHEMBL1157622, “Synthesis and antiproliferative evaluation of certain indolo[3,2-c]quinoline derivatives” (Bioorg Med Chem, 2010).
Activity calls are given as the source filed them. The rule behind the calls is not given here.

How the values were obtained:
HeLa [1] = test: Antiproliferative activity against human HeLa cells by MTT assay; format: functional, cell-based
PC-3 [2] = test: Antiproliferative activity against human PC3 cells by MTT assay; format: functional, cell-based
[3] = Antiproliferative activity against human SKHep cells by MTT assay; format: functional, cell-based
A549 = test: Antiproliferative activity against human A549 cells by MTT assay; format: functional, cell-based
Detroit 551 = test: Antiproliferative activity against human Detroit 551 cells by MTT assay; format: cell-based
HeLa [4] = test: Antiproliferative activity against human HeLa cells assessed as reduction in colony number after 48 hrs by clonogenic assay; format: functional, cell-based
[5] = target: DNA topoisomerase 2-alpha (Homo sapiens) (UniProt P11388); test: Inhibition of DNA topoisomerase 2-mediated unwinding of supercoiled pBR322 DNA
DNA topoisomerase 2-alpha (Homo sapiens), sequence (P11388 whole entry): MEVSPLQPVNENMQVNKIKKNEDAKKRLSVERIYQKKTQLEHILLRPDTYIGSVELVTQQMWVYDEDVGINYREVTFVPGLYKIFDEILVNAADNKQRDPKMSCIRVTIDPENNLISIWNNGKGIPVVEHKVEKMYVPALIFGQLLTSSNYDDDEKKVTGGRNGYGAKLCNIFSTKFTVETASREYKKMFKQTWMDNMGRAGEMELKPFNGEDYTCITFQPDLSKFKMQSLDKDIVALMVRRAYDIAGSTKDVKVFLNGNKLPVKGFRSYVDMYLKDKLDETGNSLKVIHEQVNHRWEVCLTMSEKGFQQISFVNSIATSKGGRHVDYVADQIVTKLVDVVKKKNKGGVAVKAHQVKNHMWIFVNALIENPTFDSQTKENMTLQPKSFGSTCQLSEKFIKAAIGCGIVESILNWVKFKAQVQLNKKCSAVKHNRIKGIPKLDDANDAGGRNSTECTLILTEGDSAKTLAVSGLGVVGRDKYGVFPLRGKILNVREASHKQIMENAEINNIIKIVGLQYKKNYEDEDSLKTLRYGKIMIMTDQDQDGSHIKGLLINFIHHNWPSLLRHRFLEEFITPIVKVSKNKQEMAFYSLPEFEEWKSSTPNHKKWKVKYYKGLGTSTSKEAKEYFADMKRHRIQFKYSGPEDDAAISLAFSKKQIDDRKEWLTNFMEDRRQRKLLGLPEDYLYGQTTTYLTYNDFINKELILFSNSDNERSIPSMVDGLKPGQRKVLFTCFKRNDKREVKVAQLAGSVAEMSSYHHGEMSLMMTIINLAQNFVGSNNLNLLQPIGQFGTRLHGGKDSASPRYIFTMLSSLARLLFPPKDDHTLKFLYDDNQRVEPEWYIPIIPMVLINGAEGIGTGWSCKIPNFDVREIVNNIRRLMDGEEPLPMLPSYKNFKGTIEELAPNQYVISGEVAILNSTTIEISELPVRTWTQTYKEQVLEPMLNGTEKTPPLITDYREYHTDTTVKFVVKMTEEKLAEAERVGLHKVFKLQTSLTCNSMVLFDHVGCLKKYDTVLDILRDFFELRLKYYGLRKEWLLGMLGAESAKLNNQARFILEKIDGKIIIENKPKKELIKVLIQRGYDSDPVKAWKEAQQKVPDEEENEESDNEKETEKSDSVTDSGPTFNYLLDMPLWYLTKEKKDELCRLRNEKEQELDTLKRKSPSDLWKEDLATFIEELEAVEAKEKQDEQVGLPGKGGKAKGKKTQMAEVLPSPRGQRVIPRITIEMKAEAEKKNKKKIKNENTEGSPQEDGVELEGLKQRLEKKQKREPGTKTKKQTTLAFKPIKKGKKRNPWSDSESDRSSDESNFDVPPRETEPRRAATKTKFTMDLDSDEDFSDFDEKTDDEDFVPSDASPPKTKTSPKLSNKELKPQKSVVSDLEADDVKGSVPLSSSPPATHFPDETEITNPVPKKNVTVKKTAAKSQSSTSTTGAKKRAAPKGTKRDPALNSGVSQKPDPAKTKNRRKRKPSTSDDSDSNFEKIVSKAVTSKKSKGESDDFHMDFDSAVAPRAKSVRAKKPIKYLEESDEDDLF

[6] = target: T1, DNA topoisomerase 1 (Homo sapiens) (UniProt P11387); test: Inhibition of topoisomerase 1-mediated unwinding of supercoiled plasmid DNA at 0.1 to 1.0 uM
T1 sequence (whole entry): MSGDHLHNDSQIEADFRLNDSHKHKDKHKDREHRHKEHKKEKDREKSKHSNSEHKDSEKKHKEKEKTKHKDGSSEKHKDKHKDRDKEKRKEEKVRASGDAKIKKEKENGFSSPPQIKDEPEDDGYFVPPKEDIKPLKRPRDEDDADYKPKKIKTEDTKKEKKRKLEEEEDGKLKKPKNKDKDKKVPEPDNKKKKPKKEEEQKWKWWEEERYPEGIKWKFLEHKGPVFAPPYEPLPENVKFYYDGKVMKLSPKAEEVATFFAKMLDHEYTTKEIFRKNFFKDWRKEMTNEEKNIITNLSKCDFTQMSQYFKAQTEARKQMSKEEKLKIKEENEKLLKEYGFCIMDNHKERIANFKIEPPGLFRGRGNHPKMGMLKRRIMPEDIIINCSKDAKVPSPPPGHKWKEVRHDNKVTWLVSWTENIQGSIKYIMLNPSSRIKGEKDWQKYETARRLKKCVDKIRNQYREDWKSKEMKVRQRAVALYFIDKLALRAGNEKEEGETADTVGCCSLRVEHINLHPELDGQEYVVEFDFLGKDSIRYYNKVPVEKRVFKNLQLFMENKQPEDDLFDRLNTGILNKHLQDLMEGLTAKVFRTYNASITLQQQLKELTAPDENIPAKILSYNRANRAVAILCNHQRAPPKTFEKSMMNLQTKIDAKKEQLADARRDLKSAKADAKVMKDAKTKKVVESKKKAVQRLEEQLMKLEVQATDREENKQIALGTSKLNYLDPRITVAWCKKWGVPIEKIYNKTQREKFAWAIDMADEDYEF

HeLa [7] = test: Antiproliferative activity against human HeLa cells at 0.3 to 1.0 uM after 48 hrs by MTT assay; format: functional
PC-3 [8] = test: Cell cycle arrest in human PC3 cells by accumulation at G1 phase at 0.1 uM after 48 hrs by propidium iodide staining-based flow cytometry (Rvb=68.4%); format: functional
PC-3 [9] = test: Cell cycle arrest in human PC3 cells by accumulation at S phase at 0.1 uM after 48 hrs by propidium iodide staining-based flow cytometry (Rvb=11.2%); format: functional
PC-3 [10] = test: Induction of apoptosis in human PC3 cells assessed as gammaH2AX phosphorylation mediated DNA damage at 0.1 uM after 48 hrs by Western blot; format: functional, cell-based
PC-3 [11] = test: Cell cycle arrest in human PC3 cells by accumulation at S phase at 0.3 uM after 48 hrs by propidium iodide staining-based flow cytometry (Rvb=11.2%); format: functional
[12] = target: T1, DNA topoisomerase 1 (Homo sapiens); test: Inhibition of topoisomerase 1-mediated unwinding of supercoiled plasmid DNA at 10 uM
PC-3 [13] = test: Cell cycle arrest in human PC3 cells by accumulation at G1 phase at 0.3 uM after 48 hrs by propidium iodide staining-based flow cytometry (Rvb=68.4%); format: functional
PC-3 [14] = test: Induction of apoptosis in human PC3 cells assessed as PARP cleavage at 0.1 uM after 48 hrs by Western blot; format: functional, cell-based
PC-3 [15] = test: Cell cycle arrest in human PC3 cells by accumulation at subG1 phase at 0.3 uM after 48 hrs by propidium iodide staining-based flow cytometry (Rvb=0.8%); format: functional
HeLa [16] = test: Antiproliferative activity against human HeLa cells assessed as reduction in colony size after 48 hrs by clonogenic assay; format: functional, cell-based
PC-3 [17] = test: Induction of apoptosis in human PC3 cells assessed as caspase 3 activation at 0.1 uM after 48 hrs by Western blot; format: functional, cell-based
PC-3 [18] = test: Cell cycle arrest in human PC3 cells by accumulation at subG1 phase at 0.1 uM after 48 hrs by propidium iodide staining-based flow cytometry (Rvb=0.8%); format: functional
PC-3 [19] = test: Cell cycle arrest in human PC3 cells by accumulation at G2/M phase at 0.1 uM after 48 hrs by propidium iodide staining-based flow cytometry (Rvb=19.4%); format: functional
PC-3 [20] = test: Cell cycle arrest in human PC3 cells by accumulation at G2/M phase at 0.3 uM after 48 hrs by propidium iodide staining-based flow cytometry (Rvb=19.4%); format: functional

Row | Structure (SMILES) | IC50 (HeLa [1]) | IC50 (PC-3 [2]) | IC50 (A549) | IC50 [3] | IC50 (Detroit 551) | other results
1 | Oc1ccc(CCNc2nc3ccccc3c3[nH]c4ccccc4c23)cc1O | 3770 nM | 15200 nM | 10300 nM | 6660 nM | – | –
2 | Oc1cccc(Nc2nc3ccccc3c3[nH]c4ccccc4c23)c1 | 10300 nM | 18400 nM | 10400 nM | 7230 nM | 42500 nM | –
3 | c1ccc(Nc2nc3ccccc3c3[nH]c4ccccc4c23)cc1 | > 30000 nM | > 30000 nM | > 30000 nM | > 30000 nM | – | –
4 | COc1ccc(CCNc2nc3ccccc3c3[nH]c4ccccc4c23)cc1OC | 520 nM | 8980 nM | 5390 nM | 5830 nM | 19300 nM | –
5 | c1ccc2c(c1)nc(NCCCCCCNc1nc3ccccc3c3[nH]c4ccccc4c13)c1c3ccccc3[nH]c21 | 310 nM | 590 nM | 500 nM | 1470 nM | – | –
6 | Oc1ccc(Nc2nc3ccccc3c3[nH]c4ccccc4c23)cc1 | 1540 nM | 5430 nM | 3870 nM | 5700 nM | 25400 nM | –
7 | Oc1ccc(CCNc2nc3ccc(F)cc3c3[nH]c4ccccc4c23)cc1 | 1330 nM | 6320 nM | 9190 nM | 7780 nM | – | –
8 | COc1cccc2c1C(=O)c1c(O)c3c(c(O)c1C2=O)C[C@@](O)(C(=O)CO)C[C@@H]3O[C@H]1C[C@H](N)[C@H](O)[C@H](C)O1 [DOXORUBICIN] | 330 nM | 1760 nM | – | – | – | –
9 | OCCNCCNc1nc2ccc(F)cc2c2[nH]c3ccccc3c12 | 1490 nM | 6510 nM | 930 nM | 1310 nM | – | –
10 | COc1ccc(Nc2nc3ccccc3c3[nH]c4ccccc4c23)cc1 | 11400 nM | 21000 nM | 10900 nM | 7780 nM | – | –
11 | Cl.c1ccc2c(c1)nc(NCCCNCCCNc1nc3ccccc3c3[nH]c4ccccc4c13)c1c3ccccc3[nH]c21 | 68 nM | 80 nM | 110 nM | 90 nM | 1980 nM | Activity (HeLa [4]): Dose-dependent effect; inhibition [5]: Dose-dependent effect; inhibition [6]: inactive; inhibition (INH) (HeLa [7]): 95%; Activity (PC-3 [8]): 40.3%; Activity (PC-3 [9]): 4.5%; Activity (PC-3 [10]): Active; Activity (PC-3 [11]): 2.7%; inhibition [12]: Active; Activity (PC-3 [13]): 15.8%; Activity (PC-3 [14]): Active; Activity (PC-3 [15]): 72.6%; Activity (HeLa [16]): Dose-dependent effect; Activity (PC-3 [17]): Active; Activity (PC-3 [18]): 30.6%; Activity (PC-3 [19]): 24.1%; Activity (PC-3 [20]): 8.7%
12 | Oc1ccccc1Nc1nc2ccccc2c2[nH]c3ccccc3c12 | 4690 nM | > 30000 nM | 17700 nM | 21900 nM | – | –
13 | Fc1ccc2nc(NCCN3CCNCC3)c3c4ccccc4[nH]c3c2c1 | 5350 nM | 12300 nM | 6200 nM | 2670 nM | – | –
14 | Fc1ccc2nc(NCCN3CCOCC3)c3c4ccccc4[nH]c3c2c1 | 4320 nM | 6840 nM | 6730 nM | 5290 nM | – | –
15 | c1ccc2c(c1)nc(NCCCCCCCNc1nc3ccccc3c3[nH]c4ccccc4c13)c1c3ccccc3[nH]c21 | 1190 nM | 6560 nM | 1190 nM | 1610 nM | – | –
16 | Oc1ccc(CCNc2nc3ccccc3c3[nH]c4ccccc4c23)cc1 | 590 nM | 8940 nM | 5740 nM | 5240 nM | 4300 nM | –
17 | CN(CCCNc1nc2ccccc2c2[nH]c3ccccc3c12)CCCNc1nc2ccccc2c2[nH]c3ccccc3c12 | 890 nM | 2010 nM | 430 nM | 280 nM | 2140 nM | –

Second part, led by results:

Row | IC50 (HeLa [1]) | IC50 (PC-3 [2]) | IC50 (A549) | Structure (SMILES) | IC50 [3] | IC50 (Detroit 551) | other results
18 | 680 nM | 1770 nM | 530 nM | c1ccc2c(c1)nc(NCCN1CCNCC1)c1c3ccccc3[nH]c21 | 380 nM | 2600 nM | –
19 | 2670 nM | 6250 nM | 2230 nM | NCCCCCCCNc1nc2ccccc2c2[nH]c3ccccc3c12 | 2540 nM | – | –
20 | 610 nM | 5790 nM | 830 nM | CN(C)CCNc1nc2ccccc2c2[nH]c3ccccc3c12 | 1600 nM | 2210 nM | –
21 | 740 nM | 5810 nM | 700 nM | OCCNCCNc1nc2ccccc2c2[nH]c3ccccc3c12 | 720 nM | 1740 nM | –
22 | 620 nM | 5650 nM | 990 nM | OCCNc1nc2ccccc2c2[nH]c3ccccc3c12 | 1020 nM | 3150 nM | –
23 | 72 nM | 2550 nM | 84 nM | NCCCCCCNc1nc2ccccc2c2[nH]c3ccccc3c12 | 2510 nM | – | –
24 | 870 nM | 2840 nM | 1130 nM | c1ccc2c(c1)nc(NCCN1CCOCC1)c1c3ccccc3[nH]c21 | 1290 nM | – | –
25 | 850 nM | 3650 nM | 500 nM | CN(C)CCCNc1nc2ccccc2c2[nH]c3ccccc3c12 | 790 nM | 2180 nM | –
26 | 650 nM | 7980 nM | 1030 nM | NCCNCCNc1nc2ccccc2c2[nH]c3ccccc3c12 | 2170 nM | 3880 nM | –
